{
  "source": "ChEMBL document CHEMBL5620353",
  "about": "“Novel antifungal triazoles with alkynyl-methoxyl side chains: Design, synthesis, and biological activity evaluation” (Eur J Med Chem, 2023)",
  "key": {"Saccharomyces cerevisiae [1]": {"tested_on": "Saccharomyces cerevisiae", "experiment": "Antifungal activity against recombinant Saccharomyces cerevisiae Y525 overexpressing CaMdr1 assessed as inhibition of fungal growth incubated for 48 hrs by microbroth dilution method", "format": "functional"}, "Saccharomyces cerevisiae [2]": {"tested_on": "Saccharomyces cerevisiae", "experiment": "Antifungal activity against recombinant Saccharomyces cerevisiae Y570 overexpressing CaCdr1 assessed as inhibition of fungal growth incubated for 48 hrs by microbroth dilution method", "format": "functional"}, "Saccharomyces cerevisiae [3]": {"tested_on": "Saccharomyces cerevisiae", "experiment": "Antifungal activity against recombinant Saccharomyces cerevisiae Y2411 overexpressing ScErg11 assessed as inhibition of fungal growth incubated for 48 hrs by microbroth dilution method", "format": "functional"}, "Saccharomyces cerevisiae [4]": {"tested_on": "Saccharomyces cerevisiae", "experiment": "Antifungal activity against recombinant Saccharomyces cerevisiae Y2300 overexpressing ScErg11 assessed as inhibition of fungal growth incubated for 48 hrs by microbroth dilution method", "format": "functional"}, "Saccharomyces cerevisiae [5]": {"tested_on": "Saccharomyces cerevisiae", "experiment": "Antifungal activity against recombinant Saccharomyces cerevisiae Y2301 overexpressing ScErg11 Y140F assessed as inhibition of fungal growth incubated for 48 hrs by microbroth dilution method", "format": "functional"}, "Saccharomyces cerevisiae [6]": {"tested_on": "Saccharomyces cerevisiae", "experiment": "Antifungal activity against recombinant Saccharomyces cerevisiae Y2513 overexpressing ScErg11 Y140H assessed as inhibition of fungal growth incubated for 48 hrs by microbroth dilution method", "format": "functional"}, "Saccharomyces cerevisiae [7]": {"tested_on": "Saccharomyces cerevisiae", "experiment": "Antifungal activity against recombinant Saccharomyces cerevisiae Y2374 overexpressing CgErg11 assessed as inhibition of fungal growth incubated for 48 hrs by microbroth dilution method", "format": "functional"}, "Saccharomyces cerevisiae [8]": {"tested_on": "Saccharomyces cerevisiae", "experiment": "Antifungal activity against recombinant Saccharomyces cerevisiae Y2462 overexpressing ScErg11 ScNcp1 assessed as inhibition of fungal growth incubated for 48 hrs by microbroth dilution method", "format": "functional"}, "Saccharomyces cerevisiae [9]": {"tested_on": "Saccharomyces cerevisiae", "experiment": "Antifungal activity against recombinant Saccharomyces cerevisiae Y2459 overexpressing CaErg11 CaCpr assessed as inhibition of fungal growth incubated for 48 hrs by microbroth dilution method", "format": "functional"}, "Saccharomyces cerevisiae [10]": {"tested_on": "Saccharomyces cerevisiae", "experiment": "Antifungal activity against recombinant Saccharomyces cerevisiae Y2721 overexpressing CpErg11 CpCpr assessed as inhibition of fungal growth incubated for 48 hrs by microbroth dilution method", "format": "functional"}, "Saccharomyces cerevisiae [11]": {"tested_on": "Saccharomyces cerevisiae", "experiment": "Antifungal activity against recombinant Saccharomyces cerevisiae Y2716 overexpressing CpErg11 Y132F CpCpr assessed as inhibition of fungal growth incubated for 48 hrs by microbroth dilution method", "format": "functional"}, "Saccharomyces cerevisiae [12]": {"tested_on": "Saccharomyces cerevisiae", "experiment": "Resistance index, ratio of MIC for recombinant Saccharomyces cerevisiae Y525 overexpressing CaMdr1 to MIC for recombinant Saccharomyces cerevisiae Y2411 overexpressing ScErg11", "format": "functional"}, "Candida albicans [13]": {"tested_on": "Candida albicans", "experiment": "Antifungal activity against Candida albicans SC5314 assessed as inhibition of fungal growth incubated for 48 hrs by microbroth dilution method", "format": "functional"}, "Candida albicans [14]": {"tested_on": "Candida albicans", "experiment": "Antifungal activity against Candida albicans 10231 assessed as inhibition of fungal growth incubated for 48 hrs by microbroth dilution method", "format": "functional"}, "Nakaseomyces glabratus": {"tested_on": "Nakaseomyces glabratus", "experiment": "Antifungal activity against Candida glabrata 537 assessed as inhibition of fungal growth incubated for 48 hrs by microbroth dilution method", "format": "functional"}, "Candida parapsilosis": {"tested_on": "Candida parapsilosis", "experiment": "Antifungal activity against Candida parapsilosis 22019 assessed as inhibition of fungal growth incubated for 48 hrs by microbroth dilution method", "format": "functional", "details": "Lodderomyces parapsilosis"}, "Pichia kudriavzevii": {"tested_on": "Pichia kudriavzevii", "experiment": "Antifungal activity against Candida krusei 4996 assessed as inhibition of fungal growth incubated for 48 hrs by microbroth dilution method", "format": "functional"}, "Candida tropicalis": {"tested_on": "Candida tropicalis", "experiment": "Antifungal activity against Candida tropicalis 8915 assessed as inhibition of fungal growth incubated for 48 hrs by microbroth dilution method", "format": "functional"}, "Cryptococcus neoformans": {"tested_on": "Cryptococcus neoformans", "experiment": "Antifungal activity against Cryptococcus neoformans 32,609 assessed as inhibition of fungal growth incubated for 72 hrs by microbroth dilution method", "format": "functional"}, "Aspergillus fumigatus": {"tested_on": "Aspergillus fumigatus", "experiment": "Antifungal activity against Aspergillus fumigatus 7544 assessed as inhibition of fungal growth incubated for 72 hrs by microbroth dilution method", "format": "functional"}, "Candida albicans [15]": {"tested_on": "Candida albicans", "experiment": "Antifungal activity against fluconazole-resistant Candida albicans 901 assessed as inhibition of fungal growth incubated for 48 hrs by microbroth dilution method", "format": "functional"}, "Candida albicans [16]": {"tested_on": "Candida albicans", "experiment": "Antifungal activity against fluconazole-resistant Candida albicans 904 assessed as inhibition of fungal growth incubated for 48 hrs by microbroth dilution method", "format": "functional"}, "[Candida] auris [17]": {"tested_on": "[Candida] auris", "experiment": "Antifungal activity against fluconazole-resistant Candida auris 891 assessed as inhibition of fungal growth incubated for 48 hrs by microbroth dilution method", "format": "functional", "details": "Candidozyma auris"}, "[Candida] auris [18]": {"tested_on": "[Candida] auris", "experiment": "Antifungal activity against fluconazole-resistant Candida auris 918 assessed as inhibition of fungal growth incubated for 48 hrs by microbroth dilution method", "format": "functional", "details": "Candidozyma auris"}, "[Candida] auris [19]": {"tested_on": "[Candida] auris", "experiment": "Antifungal activity against fluconazole-resistant Candida auris 919 assessed as inhibition of fungal growth incubated for 48 hrs by microbroth dilution method", "format": "functional", "details": "Candidozyma auris"}, "[20]": {"experiment": "Metabolic stability in human liver microsomes assessed as half life at 1 uM preincubated for 10 mins followed by NADPH addition and measured upto 60 mins by LC-MS/MS analysis", "format": "ADME, Microsome", "details": "time < 70 min"}, "[21]": {"experiment": "Metabolic stability in human liver microsomes assessed as intrinsic clearance at 1 uM preincubated for 10 mins followed by NADPH addition and measured upto 60 mins by LC-MS/MS analysis", "format": "ADME, Microsome", "details": "time < 70 min, read-out: CLH"}},
  "data": [
    {"smiles": "C[C@@H](c1ncncc1F)[C@](O)(Cn1cncn1)c1ccc(F)cc1F", "note": "[VORICONAZOLE]", "values": [
      {"measurement": "MIC", "setting": "Saccharomyces cerevisiae [1]", "result": 0.5, "unit": "µg/mL"},
      {"measurement": "MIC", "setting": "Saccharomyces cerevisiae [2]", "result": 8, "unit": "µg/mL"},
      {"measurement": "MIC", "setting": "Saccharomyces cerevisiae [3]", "result": 0.008, "unit": "µg/mL"},
      {"measurement": "MIC", "setting": "Saccharomyces cerevisiae [4]", "result": 0.031, "unit": "µg/mL"},
      {"measurement": "MIC", "setting": "Saccharomyces cerevisiae [5]", "result": 0.031, "unit": "µg/mL"},
      {"measurement": "MIC", "setting": "Saccharomyces cerevisiae [6]", "result": 0.031, "unit": "µg/mL"},
      {"measurement": "MIC", "setting": "Saccharomyces cerevisiae [7]", "result": 0.031, "unit": "µg/mL"},
      {"measurement": "MIC", "setting": "Saccharomyces cerevisiae [8]", "result": 0.063, "unit": "µg/mL"},
      {"measurement": "MIC", "setting": "Saccharomyces cerevisiae [9]", "result": 0.016, "unit": "µg/mL"},
      {"measurement": "MIC", "setting": "Saccharomyces cerevisiae [10]", "result": 0.063, "unit": "µg/mL"},
      {"measurement": "MIC", "setting": "Saccharomyces cerevisiae [11]", "result": 0.25, "unit": "µg/mL"},
      {"measurement": "Ratio", "setting": "Saccharomyces cerevisiae [12]", "result": 64}
    ]},
    {"smiles": "C[C@@H](c1nc(-c2ccc(C#N)cc2)cs1)[C@](O)(Cn1cncn1)c1ccc(F)cc1F", "note": "[RAVUCONAZOLE]", "values": [
      {"measurement": "MIC", "setting": "Candida albicans [13]", "result": 0.25, "unit": "µg/mL"},
      {"measurement": "MIC", "setting": "Candida albicans [14]", "result": 16, "unit": "µg/mL"},
      {"measurement": "MIC", "setting": "Nakaseomyces glabratus", "result": "≤ 0.125", "unit": "µg/mL"},
      {"measurement": "MIC", "setting": "Candida parapsilosis", "result": "≤ 0.125", "unit": "µg/mL"},
      {"measurement": "MIC", "setting": "Pichia kudriavzevii", "result": "≤ 0.125", "unit": "µg/mL"},
      {"measurement": "MIC", "setting": "Candida tropicalis", "result": 4, "unit": "µg/mL"},
      {"measurement": "MIC", "setting": "Cryptococcus neoformans", "result": "≤ 0.125", "unit": "µg/mL"},
      {"measurement": "MIC", "setting": "Aspergillus fumigatus", "result": 0.25, "unit": "µg/mL"},
      {"measurement": "MIC", "setting": "Candida albicans [15]", "result": 16, "unit": "µg/mL"},
      {"measurement": "MIC", "setting": "Candida albicans [16]", "result": 16, "unit": "µg/mL"},
      {"measurement": "MIC", "setting": "[Candida] auris [17]", "result": 1, "unit": "µg/mL"},
      {"measurement": "MIC", "setting": "[Candida] auris [18]", "result": 1, "unit": "µg/mL"},
      {"measurement": "MIC", "setting": "[Candida] auris [19]", "result": 1, "unit": "µg/mL"},
      {"measurement": "MIC", "setting": "Saccharomyces cerevisiae [1]", "result": 0.125, "unit": "µg/mL"},
      {"measurement": "MIC", "setting": "Saccharomyces cerevisiae [2]", "result": 32, "unit": "µg/mL"},
      {"measurement": "MIC", "setting": "Saccharomyces cerevisiae [3]", "result": 0.008, "unit": "µg/mL"},
      {"measurement": "MIC", "setting": "Saccharomyces cerevisiae [4]", "result": 0.063, "unit": "µg/mL"},
      {"measurement": "MIC", "setting": "Saccharomyces cerevisiae [5]", "result": 0.063, "unit": "µg/mL"},
      {"measurement": "MIC", "setting": "Saccharomyces cerevisiae [6]", "result": 0.016, "unit": "µg/mL"},
      {"measurement": "MIC", "setting": "Saccharomyces cerevisiae [7]", "result": 0.063, "unit": "µg/mL"},
      {"measurement": "MIC", "setting": "Saccharomyces cerevisiae [8]", "result": 0.063, "unit": "µg/mL"},
      {"measurement": "MIC", "setting": "Saccharomyces cerevisiae [9]", "result": 0.016, "unit": "µg/mL"},
      {"measurement": "MIC", "setting": "Saccharomyces cerevisiae [10]", "result": 0.031, "unit": "µg/mL"},
      {"measurement": "MIC", "setting": "Saccharomyces cerevisiae [11]", "result": 0.031, "unit": "µg/mL"}
    ]},
    {"smiles": "Cc1ncc2n1-c1ccc(Cl)cc1C(c1ccccc1F)=NC2", "note": "[MIDAZOLAM]", "values": [
      {"measurement": "half-life at 1 µM", "setting": "[20]", "result": 4.67, "unit": "min"},
      {"measurement": "microsomal CLint at 1 µM", "setting": "[21]", "result": 297, "unit": "µL/min/mg"}
    ]},
    {"smiles": "CC(=O)N1CCN(c2ccc(OCC3COC(Cn4ccnc4)(c4ccc(Cl)cc4Cl)O3)cc2)CC1", "note": "(centres undefined) [KETOCONAZOLE]", "values": [
      {"measurement": "MIC", "setting": "Saccharomyces cerevisiae [1]", "result": 1, "unit": "µg/mL"},
      {"measurement": "MIC", "setting": "Saccharomyces cerevisiae [2]", "result": "> 64", "unit": "µg/mL"},
      {"measurement": "MIC", "setting": "Saccharomyces cerevisiae [3]", "result": 0.5, "unit": "µg/mL"},
      {"measurement": "MIC", "setting": "Saccharomyces cerevisiae [4]", "result": 2, "unit": "µg/mL"},
      {"measurement": "MIC", "setting": "Saccharomyces cerevisiae [5]", "result": 2, "unit": "µg/mL"},
      {"measurement": "MIC", "setting": "Saccharomyces cerevisiae [6]", "result": 1, "unit": "µg/mL"},
      {"measurement": "MIC", "setting": "Saccharomyces cerevisiae [7]", "result": 1, "unit": "µg/mL"},
      {"measurement": "MIC", "setting": "Saccharomyces cerevisiae [8]", "result": 1, "unit": "µg/mL"},
      {"measurement": "MIC", "setting": "Saccharomyces cerevisiae [9]", "result": 0.5, "unit": "µg/mL"},
      {"measurement": "MIC", "setting": "Saccharomyces cerevisiae [10]", "result": 0.5, "unit": "µg/mL"},
      {"measurement": "MIC", "setting": "Saccharomyces cerevisiae [11]", "result": 2, "unit": "µg/mL"}
    ]}
  ]
}
